Key:
MCL-1ΔNΔC [1] = assay: High-throughput competitive FP binding screen, FITC-MCL-1 SAHB/MCL-1ΔNΔC interaction; conditions: selectivity for MCL-1ΔNΔC over BCL-XLΔC targeting (BCL-XL % Bound minus MCL-1 % Bound)
BCL-XLΔC = BCL-XLΔC (Homo sapiens, UniProt Q07817); assay: High-throughput competitive FP binding screen, FITC-BAD BH3/BCL-XLΔC interaction; conditions: FITC-BAD BH3/BCL-XLΔC interaction pair, competitive FP screen
MCL-1ΔNΔC [2] = molecular target: MCL-1ΔNΔC (Homo sapiens, UniProt Q07820); assay: High-throughput competitive FP binding screen, FITC-MCL-1 SAHB/MCL-1ΔNΔC interaction; parameters: the C-terminal alpha-helix was deleted from each of these constructs; GST (N, cleaved yes); made in house; conditions: FITC-MCL-1 SAHB/MCL-1ΔNΔC interaction pair, competitive FP screen
Chain of MCL-1ΔNΔC (Homo sapiens, UniProt Q07820) (Q07820 172-320 limits assumed, stated change not applied): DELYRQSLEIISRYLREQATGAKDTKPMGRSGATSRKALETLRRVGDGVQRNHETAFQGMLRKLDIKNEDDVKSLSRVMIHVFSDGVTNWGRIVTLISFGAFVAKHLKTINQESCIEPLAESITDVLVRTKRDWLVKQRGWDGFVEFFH

Chain of BCL-XLΔC (Q07817 1-212 limits assumed, stated change not applied): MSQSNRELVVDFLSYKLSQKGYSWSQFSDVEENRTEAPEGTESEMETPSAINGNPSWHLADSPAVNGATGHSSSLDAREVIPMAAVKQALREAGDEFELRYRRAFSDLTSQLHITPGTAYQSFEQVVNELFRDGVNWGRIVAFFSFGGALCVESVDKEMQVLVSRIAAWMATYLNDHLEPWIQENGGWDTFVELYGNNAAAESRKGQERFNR

SMILES	Spec Values (MCL-1ΔNΔC [1])	BCL-XL % Bound (BCL-XLΔC)	MCL-1% Bound (MCL-1ΔNΔC [2])
O=S(=O)(Nc1ccc(O)c2ccccc12)c1ccccc1	76.72	96.39%	19.67%
O=C1C(Sc2nc[nH]n2)=C/C(=N/S(=O)(=O)c2cccs2)c2ccccc21	73.41	93.16%	19.75%
CC(C)c1ccc(C2=CC(=O)C=CC2=O)cc1	82.58	89.1%	6.516%
CCc1cccc(NC(=O)/C=C/c2ccco2)c1	81.13	80.4%	−0.7334%
Cc1occc1-c1nnc2n1N=C(c1ccc(-c3cc(Cl)ccc3Cl)o1)CS2	81.03	104%	22.98%
Cc1cc(C)c2nc(N3CCCN(C(=O)c4ccco4)CC3)c(C#N)cc2c1	80.8	92.2%	11.4%
Cc1ccc(C)n1-c1cc(Cl)ccc1C(=O)O	79.84	75.93%	−3.914%
O=C(OCc1ccc(F)cc1)c1cc(-c2ccco2)nc2ccccc12	79.65	101.6%	21.94%
Cc1ccc(NC(=S)Nc2ccc3nc(-c4ccco4)c(-c4ccco4)nc3c2)cc1	78.01	75.97%	−2.047%
Oc1ccc2cc3c4cc(Br)ccc4nc-3oc2c1O	76.69	90.07%	13.37%
O=C1/C(=C\C=C\c2ccco2)SC(=S)N1NCc1ccccc1O	76.1	95.8%	19.8%
COC(=O)/C=C1/OC(c2ccc(Cl)cc2)=CC1=O	75.38	97.17%	21.79%
O=C1CSCC(=O)N1c1csc(C(F)(F)F)c1-c1ccccc1	74.8	96.35%	21.55%
[Na+].[Na+].[O-]c1c(Cl)cc(Cl)cc1Sc1cc(Cl)cc(Cl)c1[O-]	73.22	100.4%	27.2%
CN1c2ccccc2C(C)(C)C12C=Cc1cc(O)ccc1O2 (stereo not drawn)	73.1	111%	37.92%
COC(=O)c1cc(OC(=O)c2ccccc2Br)n(C)n1	72.92	103.1%	30.23%
O=c1oc2ccccc2c2oc3cc(O)c(O)cc3c12	72.31	84.9%	12.59%
Oc1cccnc1NC(c1ccc(F)cc1)c1ccc2cccnc2c1O (stereo not drawn)	71.24	113.7%	42.49%
Cc1cc2c(n1-c1ccc(C(=O)O)cc1)CCCC2	71.18	65.33%	−5.85%
COc1ccc(C(=O)c2sc3cc(-c4ccco4)cc(C(F)(F)F)c3c2N)cc1OC	70.97	85.27%	14.29%
Cc1occc1-c1nnc2sc(Cc3cccc4ccccc34)nn12	70.8	129.5%	58.7%

SMILES	Spec Values (MCL-1ΔNΔC [1])	BCL-XL % Bound (BCL-XLΔC)	MCL-1% Bound (MCL-1ΔNΔC [2])
O=C(Nc1ccccc1)C(C(F)(F)F)C(F)(F)F	70.63	82.61%	11.98%
CC1CCN(C2=NN3C(=N)/C(=C\c4ccc(SCc5ccco5)o4)C(=O)N=C3S2)CC1	70.38	84.68%	14.3%
CCCCn1nnnc1COC(=O)/C(C#N)=C/c1ccc(N(C)C)cc1	70.27	62.97%	−7.306%
O=C1NC(=O)/C(=C/c2ccc(-c3ccc(S(=O)(=O)N4CCOCC4)cc3)o2)S1	69.33	107.9%	38.57%
Cc1ccc2[nH]c3nc(=S)[nH]nc3c2c1	69.2	107.9%	38.65%
CCOC(=O)c1cc(C#N)c(SCC(=O)c2cc3ccccc3oc2=O)[nH]c1=O	68.9	100.2%	31.28%
N#CC1=C(c2ccc(Cl)cc2)C2CSc3ccccc3C2NC1=O (stereo not drawn)	68.29	87.67%	19.37%
Cc1ccc2c(c1C)NC(C(=O)O)C1CC=CC21 (stereo not drawn)	68.3	82.8%	14.6%
CCN(CC)c1cc(C)c2cc(NC(=O)/C=C/c3ccco3)ccc2n1	68.15	79.88%	11.73%
N#CC1=C(S)NC(=O)C(C#N)C12CCCCC2 (stereo not drawn)	67.9	107.0%	39.1%
CCOC(=O)C(C)Oc1cccc2c(=O)n(CC(=O)Nc3ccc4c(c3)CCCO4)ccc12 (stereo not drawn)	67.48	102%	34.53%
COc1cc2c(O)c3c(c(-c4ccc5c(c4)OCO5)c2cc1OC)C(=O)OC3	66.63	104.6%	37.92%
O=C(ON1C(=O)CCC1=O)c1ccc(Cl)cc1Cl	66.25	96.73%	30.48%
Cn1cc2c(n1)-c1cc(Cl)ccc1SC2	66.16	89.61%	23.45%
CCOC(=O)c1cc(CC)sc1NC(=O)C=C(C)C	66	90.12%	24.13%
COc1ccc(C(Nc2cc(C)ccn2)c2ccc3cccnc3c2O)cc1O (stereo not drawn)	65.85	93.02%	27.17%
c1cc2nsnc2c2c1Nc1nc3nonc3nc1N2	65.78	57.68%	−8.097%
Cc1ncc(CO)c2c1Oc1nc(-c3ccccc3)[nH]c(=S)c1C2	65.07	131.2%	66.14%
CCCCc1c(C)sc(NC(=S)Nn2cnnc2)c1C(=O)OCC	64.95	69.53%	4.578%
CC1CCc2c(sc3[nH]c(=S)sc(=N)c23)C1 (stereo not drawn)	64.71	83.66%	18.95%
O=C1C=Cc2ccc3c4c(ccc1c24)C=CC3=O	64.7	91.4%	26.7%

SMILES	Spec Values (MCL-1ΔNΔC [1])	BCL-XL % Bound (BCL-XLΔC)	MCL-1% Bound (MCL-1ΔNΔC [2])
CC1=C/C(=N\Nc2ccccc2Cl)CC1	64.61	99.01%	34.4%
O=C(O)c1cccc(-c2ccc(CC3Sc4ccccc4C3=O)o2)c1 (stereo not drawn)	64.25	95.42%	31.17%
O=C(O)C1Nc2c(I)cccc2C2C=CCC12 (stereo not drawn)	64.16	100.3%	36.12%
Cc1ccc(CCNC(=O)c2ccc3nc(-c4ccco4)c(-c4ccco4)nc3c2)cc1	64.01	99.74%	35.73%
Clc1cccc2c(N3CCCCCC3)cnnc12	63.59	85.37%	21.78%
Cc1ccc(C)c2[nH]c(=O)c(C(c3nnnn3C3CCCC3)N3CCCC3)cc12 (stereo not drawn)	63.57	103.3%	39.75%
CS(=O)(=O)CS(=O)(=O)NNc1ncc(C(F)(F)F)cc1Cl	63.45	104.7%	41.29%
CN1C(=O)C2(NN=C(c3ccccc3)S2)c2cc(Br)ccc21 (stereo not drawn)	63.14	81.72%	18.57%
O=C(NN=C1CCCC1)c1ccccc1NS(=O)(=O)c1cccs1	63.07	92.34%	29.27%
Cc1nc2c(C(=O)NCc3ccccc3Cl)cnn2c(O)c1Cl	63.02	94.42%	31.4%
O=C(c1ccc(O)cc1)N1CCN(c2cccc(Cl)c2)CC1	62.99	90.71%	27.72%
O=C(c1ccccc1)c1nc2ccccc2oc1=O	62.88	43.27%	−19.61%
CCCCn1c(=O)[nH]c(=O)c2c1nc(-c1cccs1)c(=O)n2C	62.84	68.85%	6.013%
Oc1cccc(C(c2ccc3cccnc3c2O)N2CCCC2)c1 (stereo not drawn)	62.71	106.4%	43.7%
CCCCC(=O)Cc1ccco1	62.08	103%	40.94%
O=C1C=CC(=O)C(CCC2=CC(=O)C=CC2=O)=C1	61.8	93.01%	31.21%
Cc1nc(COC(=O)c2cc(O)c3ccccc3c2O)cs1	61.73	101.3%	39.52%
O=C(CSc1nc2c(sc(=S)n2Cc2ccco2)c(=O)n1-c1ccccc1)c1ccc(O)c(O)c1	61.48	120.9%	59.44%
N#C/C(=C/C=C/c1ccc(-c2cc(Cl)ccc2Cl)o1)C(N)=S	60.96	79.39%	18.44%
Cn1c(/N=C/c2c(O)ccc3ccccc23)nc2ccc(Br)cc21	60.88	31.24%	−29.64%

— patent US20150315211A1, “SMALL MOLECULES FOR THE MODULATION OF MCL-1 AND METHODS OF MODULATING CELL DEATH, CELL DIVISION, CELL DIFFERENTIATION AND METHODS OF TREATING DISORDERS” (priority 2010, published 2015)
